Laboratory results as given in the supplement of paper PMC4932681.

Legend:
Assay in all cases: viability inhibition at highest dose (% inhibition); higher = more growth inhibition
BT-474 Tam1 = details: 4-OH-tamoxifen in medium 1 µM; 72 h
Procedure: (§1)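 Percent inhibition of viability (CellTiter-Glo, 72 h) at the highest tested concentration (D5), normalised to DMSO (0%) and 100 µM benzethonium chloride (100%). Resistant lines and the 'in 1µM tamoxifen' arms were tested in 1 µM 4-OH-tamoxifen.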

BT-474 Tam2 = details: 4-OH-tamoxifen in medium 1 µM; 72 h
Procedure: as §1

BT-474 = details: 72 h
Procedure: as §1

MCF-7 Tam1 = details: 4-OH-tamoxifen in medium 1 µM; 72 h
Procedure: as §1

MCF-7 = details: 72 h
Procedure: as §1

T-47D Tam1 = details: 4-OH-tamoxifen in medium 1 µM; 72 h
Procedure: as §1

T-47D Tam2 = details: 4-OH-tamoxifen in medium 1 µM; 72 h
Procedure: as §1

T-47D = details: 72 h
Procedure: as §1

ZR-75-1 Tam1 = details: 4-OH-tamoxifen in medium 1 µM; 72 h
Procedure: as §1

ZR-75-1 Tam2 = details: 4-OH-tamoxifen in medium 1 µM; 72 h
Procedure: as §1

ZR-75-1 = details: 72 h
Procedure: as §1

SMILES | viability inhibition at highest dose (BT-474 Tam1) | viability inhibition at highest dose (BT-474 Tam2) | viability inhibition at highest dose (BT-474; 4-OH-tamoxifen in medium 0 µM) | viability inhibition at highest dose (BT-474; 4-OH-tamoxifen in medium 1 µM) | viability inhibition at highest dose (MCF-7 Tam1) | viability inhibition at highest dose (MCF-7; 4-OH-tamoxifen in medium 0 µM) | viability inhibition at highest dose (MCF-7; 4-OH-tamoxifen in medium 1 µM) | viability inhibition at highest dose (T-47D Tam1) | viability inhibition at highest dose (T-47D Tam2) | viability inhibition at highest dose (T-47D; 4-OH-tamoxifen in medium 0 µM) | viability inhibition at highest dose (T-47D; 4-OH-tamoxifen in medium 1 µM) | viability inhibition at highest dose (ZR-75-1 Tam1) | viability inhibition at highest dose (ZR-75-1 Tam2) | viability inhibition at highest dose (ZR-75-1; 4-OH-tamoxifen in medium 0 µM) | viability inhibition at highest dose (ZR-75-1; 4-OH-tamoxifen in medium 1 µM)
N[C@@H](CSC(c1ccccc1)(c1ccccc1)c1ccccc1)C(=O)O [S-trityl-L-cysteine] (drug 40000 nM) | 23.3 | -5.53 | -1.05 | 23.9 | -5.14 | 0.988 | 18.1 | 4.09 | 4.25 | 2.31 | 4.34 | 4.16 | 3.17 | 9.84 | 13
COc1cc2c(N3CCN(C(=O)Nc4ccc(OC(C)C)cc4)CC3)ncnc2cc1OCCCN1CCCCC1 [Tandutinib] (drug 1000 nM) | -0.467 | -13.2 | -11.4 | -9.77 | -14.2 | -5.26 | -13.7 | -4.68 | 5.77 | -12.3 | -11.9 | 1.06 | -7.47 | -10 | -3.58
Cn1cc(C2=C(c3cn(C4CCN(Cc5ccccn5)CC4)c4ccccc34)C(=O)NC2=O)c2ccccc21 [Enzastaurin] (drug 10000 nM) | -11.4 | -1.15 | -3.38 | -20.9 | -11.6 | -11 | -13.8 | -9.95 | -0.917 | -15.8 | -13.2 | 1.19 | -0.91 | -10.7 | -19.1
CN(C)CCN1C(=O)c2cccc3cc(N)cc(c23)C1=O [Amonafide] (drug 10000 nM) | -18.4 | -15.7 | -11.5 | -35.2 | 7.15 | 51.1 | 20.4 | 5.27 | 11.3 | 23.6 | -12 | 12.9 | 23.1 | 35.4 | 17.1
Nc1nc(Cl)nc2c1ncn2[C@H]1C[C@H](O)[C@@H](CO)O1 [Cladribine] (drug 1000 nM) | -9.7 | -11.6 | -15.8 | -9.47 | -0.292 | -15.2 | 6.39 | 25.8 | 11.4 | -1.69 | -2.3 | 21 | 20 | 15.2 | 15.8
CC(C)n1cnc2c(NCCc3ccc(O)cc3)nc(-c3csc4ccccc34)nc21 [StemRegenin 1] (drug 10000 nM) | 95.2 | 89 | 25.1 | 96.4 | 18.6 | 51.4 | 65.3 | 41.9 | 54.1 | 35.4 | 50.4 | 19.8 | 24.2 | 8.1 | 26.6
CO[C@@H]1[C@H](N(C)C(=O)c2ccccc2)C[C@H]2O[C@]1(C)n1c3ccccc3c3c4c(c5c6ccccc6n2c5c31)C(=O)NC4 [Midostaurin (PKC412)] (drug 10000 nM) | 27.5 | 19.4 | 23.7 | 40.4 | 17.7 | 18.9 | 17 | 34.6 | 25.1 | 18.3 | 39.4 | -11.5 | -15.6 | -11.7 | 0.532
CN(C)CCOc1ccc(/C(=C(/CCCl)c2ccccc2)c2ccccc2)cc1 [Toremifene (citrate)] (drug 10000 nM) | 95.2 | 99.1 | 25.6 | 82.9 | 35.5 | 19.2 | 69.3 | 45.2 | 62 | 9.04 | 1.56 | 18.3 | 25.1 | 3.59 | 24.4
CC(C)C(=O)Nc1ccc([N+](=O)[O-])c(C(F)(F)F)c1 [Flutamide] (drug 10000 nM) | 6.08 | 6.26 | -10.2 | -11.4 | -3.99 | -18 | 15.9 | 6.02 | 11.2 | 0.571 | -1.73 | -0.0944 | -5.1 | -10.7 | -3.17
Nc1cc(C(F)(F)F)c(-c2cc(N3CCOCC3)nc(N3CCOCC3)n2)cn1 [Buparlisib (BKM-120)] (drug 10000 nM) | 93.8 | 89.9 | 64.5 | 88.6 | 42.8 | 72.8 | 72.2 | 70.7 | 71.3 | 75.8 | 77.6 | 57 | 61.8 | 57.9 | 48.8
Cc1ccc(Nc2nccc(N(C)c3ccc4c(C)n(C)nc4c3)n2)cc1S(N)(=O)=O [Pazopanib] (drug 10000 nM) | 23.6 | 7.37 | -2.15 | -6.21 | 1.65 | 8.65 | 16.4 | 4.97 | 23.6 | 12.7 | -6.23 | 6.13 | 10.8 | -3.01 | 11.1
